From patent US8080246B2, “Colony stimulating factor 1 receptor (CSF1R) extracellular domain fusion molecules” (Five Prime Therapeutics, Inc., priority 2008, dated 2011)
Read-outs that look alike come from different tables or passages of the source.

Experiments:
[1] = tested on: CIA mouse model; assay: Mouse collagen-induced arthritis (CIA) model, Example 9; assay type: in vivo; details: relative to vehicle, p<0.01
[2] = tested on: CIA mouse model; assay: Mouse collagen-induced arthritis (CIA) model, Example 13 (clinical score, histology, serum PYD); assay type: in vivo; details: for clinical arthritis scores: FIG. 9; for serum pyridinoline (PYD) levels: vs vehicle control, ELISA, FIG. 12
[3] = tested on: CD115+ GR1- monocytes in the spleen; assay: Depletion of CD115+ GR1- monocytes from spleen (flow cytometry); assay type: in vivo, mouse; details: DBA1 mice, 20 mg/kg i.p. 3 times per week, two weeks
Protocol: Male DBA1 mice were administered i.p. 3 times per week with saline or mCSF1R.506-Fc protein (SEQ ID NO:34) at 20 mg/kg. After two weeks of treatment, spleens were harvested for analysis of monocytes by flow cytometry as described (Liu et al., Science 324: 392 (2009)). Cells were stained at 4° C. in PBS with 5% (vol/vol) FBS. An LSR II (Becton Dickinson) was used for multiparameter flow cytometry of stained cell suspensions, followed by analysis with FlowJo software (TreeStar).

[4] = tested on: EAE mouse model; details: for reduction in the EAE clinical score: relative to vehicle
Protocol: The CSF1R ECD fusion molecules were also tested for their ability to inhibit MS disease pathology in a mouse model of MS. These experiments used the mouse experimental autoimmune encephalomyelitis (EAE) model, which is widely used as a model of MS in humans. See, for example, Steinman and Zamvil, TRENDS in Immunology, 26(11):565-571 (2005). In the EAE model, disease progression and associated pathology may be measured according to the following EAE clinical score: no clinical disease (Score: 0); tail flaccidity (Score: 1); hind limb weakness (Score: 2); hind limb paralysis (Score: 3); forelimb paralysis or loss of ability to right from supine (stand up from a supine position) (Score: 4); and moribund (near death) or dead (Score: 5). […] The mCSF1R.506-Fc fusion protein (m506) was tested to determine whether it could decrease the EAE clinical scores or body weight loss. The mCSF1R.506-Fc fusion protein (SEQ ID NO.:8) was expressed and purified from the culture media of CHO cells stably transfected with the mCSF1R.506-Fc/pDEF38 plasmid vector as described in Example 2.
For the EAE mouse model experiments, 60 female C57BL/6 mice, age […], were divided into five groups: • Group 1: Vehicle control (Vehicle) (phosphate buffered saline, PBS), 100 μl, i.p., 3 times a week for up to 7 weeks; • Group 2: Methotrexate positive control (MTX), 10 mg/kg, i.v., q3d for up to 7 weeks; • Group 3: mCSF1R.506-Fc, 1 mg/kg, i.p., 3 times a week for up to 7 weeks; • Group 4: mCSF1R.506-Fc, 10 mg/kg, i.p., 3 times a week for up to 7 weeks; • Group 5: mCSF1R.506-Fc, 20 mg/kg, i.p., 3 times a week for up to 7 weeks.
Each group consisted of 12 mice. EAE induction was performed according to the following protocol: 300 ug of myelin oligodendrocyte glycoprotein (MOG)35-55 peptide was dissolved in 100 ul PBS and emulsified in an equal volume of complete Freund's adjuvant (CFA) containing 5 mg/ml Mycobacterium tuberculosis H37 RA. The emulsion (200 ul) was injected subcutaneously into the flank of the mice on days 0 and 7. Pertussis toxin (500 ng in 500 ul of PBS; List Biological Labs) was administered intravenously into each tail vein on days 0 and 2.
The MTX (10 mg/kg) was administered intravenously once every 3 days (q3d) for up to seven weeks starting on day 0; mCSF1R.506-Fc (1 mg/kg, 10 mg/kg, or 20 mg/kg), or vehicle (PBS) was administered intraperitoneally to the EAE mice in a 0.2 ml volume three times per week for 45 days, starting on day 0. The EAE clinical scores were measured prior to each dosing of PBS, MTX, or mCSF1R.506-Fc, using the above-mentioned scoring system. Body weights were recorded on day 0 before treatment was initiated, and were then measured at least twice per week including the day the study was terminated for seven weeks (on days 0, 2, 6, 8, 10, 13, 16, 17, 20, 22, 24, 27, 29, 31, 34, 36, 38, 41, 43, and 45).

[5] = biological target: T1, CSF1 (Homo sapiens, UniProt P09603); assay: Biacore SPR CSF1 ligand binding affinity and kinetics; details: proteins expressed in CHO cells; Biacore (Table 4)
T1 sequence (P09603 33-554): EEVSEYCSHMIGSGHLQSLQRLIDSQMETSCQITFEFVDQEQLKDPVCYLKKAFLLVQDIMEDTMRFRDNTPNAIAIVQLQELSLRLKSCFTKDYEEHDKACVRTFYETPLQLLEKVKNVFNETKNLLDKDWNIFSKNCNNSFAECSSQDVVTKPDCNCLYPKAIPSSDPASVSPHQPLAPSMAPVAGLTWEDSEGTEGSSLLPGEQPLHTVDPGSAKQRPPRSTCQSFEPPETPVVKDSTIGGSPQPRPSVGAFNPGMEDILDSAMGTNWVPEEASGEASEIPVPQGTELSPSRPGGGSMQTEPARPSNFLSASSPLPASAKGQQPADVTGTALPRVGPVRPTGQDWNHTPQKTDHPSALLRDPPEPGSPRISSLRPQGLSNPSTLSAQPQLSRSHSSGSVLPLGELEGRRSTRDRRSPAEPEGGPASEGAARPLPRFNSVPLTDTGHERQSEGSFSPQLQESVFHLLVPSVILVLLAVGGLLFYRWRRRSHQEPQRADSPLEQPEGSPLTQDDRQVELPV
Protocol: The CSF1 and IL34 ligand binding affinity and kinetics of the hCSF1R.506-GS-Fc and hCSF1R.512-GS-Fc fusion proteins were determined using Biacore® X surface plasmon resonance (SPR) technology (Uppsala, Sweden). CSF1 and IL34 are the only two ligands known to interact with the CSF1R ECD. The CSF1 and IL34 binding experiments were carried out using methodology similar to that described in Lin et al., Science 320:807-811, (2008).
In order to compare the relative ligand binding affinity of hCSF1R.506 (SEQ ID NO:2) and hCSF1R.506-Fc (SEQ ID NO:6) proteins expressed in CHO cells to CSF1, a Biacore® assay was used.

[6] = tested on: human primary monocytes; assay: Human monocyte viability (CellTiter-Glo ATP); assay type: cell-based; details: four days incubation; ATP levels; protein from 293-6E cells; read-out: IC50, inhibition of human monocyte viability
Protocol: Primary monocytes were isolated from human peripheral blood mononuclear cells (PBMC) through size sedimentation over Percoll columns as described (de Almeida et al., Mem Inst Oswaldo Cruz 95(2):221-223, (2000)). In this experiment, 1×10^4 freshly isolated human primary monocytes per well of a 96-well plate were incubated with the hCSF1R.506-GS-Fc or hCSF1R.512-GS-Fc fusion protein (0.01-120 nM) and the cells were incubated at 37° C. with 5% CO2. After four days, ATP levels in the cells were determined using the CellTiter-Glo Luminescent Cell Viability Assay Kit (Promega, Cat. No. G7571), according to the manufacturer's instructions, as a measurement of cell viability.

[7] = tested on: peripheral blood monocytes (F4/80+, CD11b+); assay: Depletion of mouse monocytes from peripheral blood after minicircle DNA tail vein transfection; assay type: in vivo; details: C57BL/6 mouse; 30 ug minicircle DNA by hydrodynamic tail vein transfection; about three weeks; vs saline
Protocol: The mCSF1R.506-GS-Fc fusion protein (SEQ ID NO.:34) was expressed in vivo to determine whether it could deplete mouse monocytes from peripheral blood as a measure of in vivo biological activity. For these experiments, the minicircle DNA vector (mCSF1R.506-GS-Fc/p2xC31MasterSfi) containing the polynucleotides encoding mCSF1R.506-GS-Fc described in Example 1 was employed. For these experiments, 30 ug of CSF1R.506-GS-Fc-encoding minicircle DNA was injected into a C57BL/6 mouse tail vein by hydrodynamic tail vein transfection (TVT) as described (Ozaki et al., J Immunol, 173(9):5361-5371 (2004)). Saline was injected as a negative control. Approximately three weeks after the tail vein injection, peripheral blood cells were isolated and monocyte levels were determined using FACS analysis with anti-CD11b and anti-F4/80 antibodies according to the manufacturer's instruction (BD Biosciences) to detect monocyte marker-positive cells (F4/80^+, CD11b^+).

ENBREL® [reference compound]
inhibition of CIA arthritis score ([1]; 10 mg/kg i.p. twice weekly for 34 days): about 40%
clinical arthritis scores ([2]; 10 mg/kg i.p. daily): inhibited clinical scores
serum pyridinoline (PYD) levels ([2]; CIA mice): not significant statistically

mCSF1R.506-Fc: Mouse CSF1R ECD lacking the five C-terminal residues fused to an Fc; SEQ ID NO. 8
reduction of CIA arthritis score ([1]; 20 mg/kg i.p. daily for 34 days): about 75%
decrease in number of CD115+GR1- cells per spleen ([3]; FIG. 14): more than 50%
CD115+GR1- monocytes in the spleen ([3]; vs saline, FIG. 13): significant reduction
inflammation, pannus formation, cartilage damage, bone resorption scores ([2]; 2 mg/kg, 6 mg/kg and 20 mg/kg, compared to vehicle treated mice, FIG. 11): significantly decreased inflammation, pannus formation, cartilage damage, and bone resorption
clinical arthritis scores ([2]; 2, 6 and 20 mg/kg i.p., dose-dependent): significantly reduced clinical arthritis scores
pannus formation, cartilage damage, bone resorption in histologic joint sections ([2]; CIA mice, FIG. 10): significantly decreased pannus formation, cartilage damage, and bone resorption
serum pyridinoline (PYD) levels ([2]; CIA mice): significantly lower
reduction in the EAE clinical score ([4]; 1 mg/kg i.p. 3 times a week, p<0.001): 55%
reduction in the EAE clinical score ([4]; 10 mg/kg i.p. 3 times a week, p<0.01): 40%
reduction in the EAE clinical score ([4]; 20 mg/kg i.p. 3 times a week, p<0.001): 78%
higher body weight relative to vehicle control ([4]; EAE mice, average of three doses (1, 10, 20 mg/kg), p<0.01-0.001): 8%

hCSF1R.506: human CSF1R ECD corresponding to SEQ ID NO.:2 (amino acids 1-506), without fusion partner
Kd [5]: 28.9 nM
ka, binding to CSF1 [5]: 2.80E+04 l/Ms
kd, binding to CSF1 [5]: 0.000809 s⁻¹

hCSF1R.512-GS-Fc: Full-length human CSF1R ECD fused to GS-Fc; SEQ ID NO. 31
IC50 [6]: 17.5 nM

hCSF1R.506-GS-Fc: Human CSF1R ECD lacking the six C-terminal residues fused to GS-Fc; SEQ ID NO. 32
IC50 [6]: 8.8 nM

CN(Cc1cnc2nc(N)nc(N)c2n1)c1ccc(C(=O)N[C@@H](CCC(=O)O)C(=O)O)cc1 [MTX, Methotrexate, reference compound]
reduction in the EAE clinical score ([4]; 10 mg/kg i.v. q3d, p<0.001): 95%

mCSF1R.506-GS-Fc: Mouse CSF1R ECD lacking the five C-terminal residues fused to GS-Fc; SEQ ID NO. 34
monocyte marker-positive cells (F4/80+, CD11b+) in peripheral blood [7]: depletion of mouse monocytes from peripheral blood
